According to patent US9146240B2, “Systems and methods for determining a C-peptide receptor, C-peptide receptor, and methods of using same” (Saint Louis University, priority 2012, dated 2015):

Target: T1, GPR146 (Homo sapiens, UniProt Q96CH1)
T1 construct: endogenous in cells; host or cells: KATOIII (human stomach carcinoma)
Assay: C-peptide-induced cFos expression in KATOIII cells after siRNA transfection
Type: cell-based
Conditions: 1 nmole C-peptide, 1 hour
Description: Once the hierarchical candidates were identified and ranked, KATOIII cells were then transfected with siRNA (Integrated DNA technologies) (111) directed against either GPR107 (control), GPR146 (most likely candidate not yet tested) or eGFP (green fluorescent protein—control) using Lipofectamine […] (Invitrogen). Five hours later, the media was changed to serum free control media (ATCC) and the serum was starved overnight. Twenty-four (24) hours after transfection with siRNA, cells were treated with 1 nmole C-peptide (Phoenix Pharmaceuticals) for 1 hour, then lysed and RNA were isolated using an RNeasy Kit (Qiagen). RNA was used as a template from the production of cDNA, and changes in cFos expression were determined using RT-PCR (BioRad 2x iQ SyberGreen Master Mix, using a BioRad CFX real time system). […] As this produced the desired negative response (113), GPR146 was the target GPCR (115). The receptiveness of GPR146 to C-peptide has since been verified by additional conventional tests

T1 sequence (Q96CH1 whole entry): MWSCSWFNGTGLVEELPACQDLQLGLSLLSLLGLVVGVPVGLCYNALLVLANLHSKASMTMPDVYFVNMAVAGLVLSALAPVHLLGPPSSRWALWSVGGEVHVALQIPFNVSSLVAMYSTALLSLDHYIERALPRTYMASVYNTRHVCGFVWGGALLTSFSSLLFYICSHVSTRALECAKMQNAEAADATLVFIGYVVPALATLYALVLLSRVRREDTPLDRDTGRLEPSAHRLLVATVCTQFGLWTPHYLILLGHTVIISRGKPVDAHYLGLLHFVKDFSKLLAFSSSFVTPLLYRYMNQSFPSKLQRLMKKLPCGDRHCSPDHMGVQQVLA

changes in cFos expression (KATOIII cells transfected with GPR107 siRNA (control)): increase in cFos | changes in cFos expression (KATOIII cells transfected with GPR146 siRNA (GPR146 compromised), FIG. 6): failed to respond | changes in cFos expression (KATOIII cells transfected with Vehicle (Lipofectamine 2000 alone, no siRNA)): increase in cFos | changes in cFos expression (KATOIII cells transfected with sGFPO siRNA (control)): increase in cFos
Substance: C-peptide
